Data set [1] deals with human colon carcinoma cell line, SW-480. The data set can be described thus: Growth inhibition of SW-480 human colon carcinoma cells, Sulforhodamine B (SRB) protein binding assay, six days. Type of data set: cell-based. To be noted: SW480, 144 h. As to the method:
The compounds of Examples 1-3 were assayed for their growth inhibitory activity on the human colon carcinoma cell line, SW-480 obtained from ATCC (Rockville, Md.), to ascertain the degree of growth inhibition. Growth inhibition of this cell line is indicative of a benefit on precancerous lesions and neoplasms. The cell line and growth assay employed for such experiments are well characterized, and are used to evaluate the anti-neoplastic properties of NSAIDs. The assay is used by the United States National Cancer Institute in its screening program for new anti-cancer drugs.
Drug stock solutions were made in 100% DMSO and were then diluted with RPMI media for cell culture testing. All drug solutions were prepared fresh on the day of testing. The cultured cells were obtained at passage #99 and grown in RPMI media supplemented with 5% fetal calf serum, and 2 mM glutamine, 100 u/ml penicillin, 100 U/ml streptomycin, and 0.25 μg/ml amphotericin. The cultures were maintained in a humidified atmosphere of 95% air and 5% CO2 at 37° C. The cultures were passaged at preconfluent densities using a solution of 0.05% trypsin and 0.53 mM EDTA. Cells were plated at 1000 cells/well for 96 well flat-bottom microtiter plates.
Tumor cell growth inhibition was assessed using the Sulforhodamine B (SRB) protein binding assay. In this assay, tumor cells were plated in 96-well plates and treated with drug-containing media for six days (continuous exposure). For each plate, 6 wells were designated as no treatment controls, six wells as vehicle (0.1% DMSO) controls, and the remaining wells for drug dilutions with three wells per drug concentration. At the end of the exposure period, the cells were fixed and stained with sulforhodamine B, a protein binding dye. The dye was then solubilized, and the optical density of the resulting solution was determined on a 96-well plate reader. The mean dye intensity of the treated wells was then divided by the mean dye intensity in the control wells (6 wells of each) to determine the effect of the drug on the cells. Dye intensity is proportional to the number of cells or amount of protein per well. The resultant "percent inhibition" value then represents the degree of growth inhibition caused by the drug.
An IC50 value was also determined for the compound of Example 3. This value is equivalent to the concentration of drug needed to inhibit tumor cell growth by 50% relative to a vehicle control. IC50 value was obtained graphically by connecting the mean values for each drug concentration tested. Each experiment included at least three wells per drug concentration. Concentration was plotted on a log scale on the X-axis.

The test system of data set [2] is SW-480 colon adenocarcinoma cells. Briefly: Apoptosis (DNA fragmentation) in SW-480 colon adenocarcinoma cells, Cell Death Detection ELISA. Format: cell-based, human. The conditions noted are these: for fold induction at 100 µM: SW480, read-out: DNA Fragmentation FS (Fold stimulation, FS=ODmax/ODveh); for fold induction at 100 µM / EC50: SW-480, 48 hrs; for Apoptosis Level (Mean OD Value ± SD): vehicle 0.175 ± 0.02. As to the method: Apoptosis was measured using an assay of cell death based on a characteristic feature of apoptotic cells (i.e., fragmented DNA). Briefly, SW-480 colon adenocarcinoma cells were plated in 96-well microtitre plates ("MTP") at a density of 10K cells/well in 180 μl and were incubated for 24 hrs. Cells were then treated with 20 μl aliquots of appropriately diluted compound, and allowed to incubate for an additional 48 hrs.
After the incubation, samples were prepared according to the following steps. The MTP was centrifuged (15 min., 1000 rpm) and the supernatant was carefully removed by fast inversion of the MTP. The cell pellets in each well were resuspended in 200 μl lysis buffer and incubated for 45 min. at room temperature to lyse the cells. The lysates were then centrifuged (15 min., 1000 rpm) and 20 μl aliquots of the supernatant (=cytoplasmicfraction) were transferred into the streptavidin coated MTP for analysis. Care was taken not to shake the lysed pellets in the MTP (=cell nucleii containing high molecular weight, unfragmented DNA). Samples were analyzed immediately, because storage at 4° C. or -20° C. reduces the ELISA-signals.
Samples were then processed according to a DNA fragmentation assay protocol, and dose-response curves were generated based on optical density readings. Quantification of DNA was done by a commercially available photometric enzyme-immunoassay manufactured by Mannheim-Boehringer under the name "Cell Death Detection ELISA^plus ". The assay is based on a quantitative sandwich-enzyme-immunoassay-principle using mouse monoclonal antibodies directed against DNA and histones, respectively. This allows the specific determination of mono and oligonucleosomes in the cytoplasmatic fraction of cell lysates. In brief, the assay procedure is as follows. The sample (cell-lysate, serum, culture-supernatant etc.) is placed into a streptavidin-coated MTP. Subsequently, a mixture of anti-histone-biotin and anti-DNA-POD is followed by incubation for 2 hours. During the incubation period, the anti-histone antibody binds to the histone-component of the nucleosomes and simultaneously fixes the immunocomplex to the streptavidin-coated MTP via its biotinylation. Additionally, the anti-DNA-POD antibody reacts with the DNA component of the nucleosomes. After removal of unbound antibodies by a washing step, the amount of nucleosomes is quantified by the POD retained in the immunocomplex. POD is determined photometrically with ABTS® (2,2'-Azino-di[3-ethylbenzthiazolin-sulfonat]) as substrate.
Fold stimulation (FS=ODmax/ODveh), an indicator of apoptotic response, was determined for each compound tested.
A general note: ELISA stands for enzyme-linked immunosorbent assay.

The conditions of data set [3]: chronic administration, high cancer-risk patients; cited from earlier work.
Another data set deals with colonic polyps. To be noted: patients; cited from earlier work.

One may read the inhibition as the change of the read-out against control, counted positive when it falls. For orientation: IC50 means the concentration that gives 50% inhibition. What is called EC50 is the concentration needed to bring the measured effect to its halfway point.

As for `O=C(Cn1nc(-c2ccccc2)c2ccccc2c1=O)NCc1ccccc1` [Example 1, 2-(1-Oxo-4-Phenylphthalazin-2-yl)-N-Benzylethanamide], the inhibition at 100 µM in data set [1] (six days continuous exposure) worked out at 90%. In addition, the fold induction at 100 µM in data set [2] (Homo sapiens) was 7.3.

In the case of `O=C(Cn1nc(-c2ccc(F)cc2)c2ccccc2c1=O)NCc1ccccc1` [Example 2], the inhibition at 100 µM in data set [1] (six days continuous exposure) is -7.8%. Also, the fold induction at 100 µM in data set [2] (Homo sapiens) was found to be 1.2.

For `O=C(Cn1nc(-c2ccc(Cl)cc2)c2ccccc2c1=O)NCc1ccccc1` [Example 3, 2-[4-(4-Chlorophenyl)-1-Oxo-Phthalazin-2-yl]-N-Benzylethanamide], the inhibition at 100 µM in data set [1] (six days continuous exposure) was 86.1%. Besides, the activity at 0.001 µM in data set [1] (Dose 0.001 μM, read-out: Growth Inhibition (% Vehicle ± SD)) came out at 105 ± 20%. The activity at 0.01 µM in data set [1] (Dose 0.01 μM, read-out: Growth Inhibition (% Vehicle ± SD)) was determined as 99 ± 11.9%. Also, the activity at 0.1 µM in data set [1] (Dose 0.1 μM, read-out: Growth Inhibition (% Vehicle ± SD)) came to 91 ± 5%. The activity at 1 µM in data set [1] (Dose 1.0 μM, read-out: Growth Inhibition (% Vehicle ± SD)) came to 94 ± 17.9%. The activity at 10 µM in data set [1] (Dose 10.0 μM, read-out: Growth Inhibition (% Vehicle ± SD)) stood at 34 ± 17.8%. Besides, the activity at 100 µM in data set [1] (Dose 100.0 μM, read-out: Growth Inhibition (% Vehicle ± SD)) came to 6 ± 1.6%. For the same compound, the IC50 in data set [1] (six days continuous exposure, read-out: IC50 (tumor cell growth, relative to vehicle control)) was found to be 5.18 µM. The “Apoptosis Level (Mean OD Value ± SD)” value in data set [2] (Dose 0.001 μM) is reported as 0.156 ± 0.02 OD; in data set [2] (Dose 0.01 μM) it was 0.165 ± 0.03 OD; in data set [2] (Dose 0.1 μM) it was 0.161 ± 0.02 OD; in data set [2] (Dose 1.0 μM) it was 0.208 ± 0.01 OD; in data set [2] (Dose 10.0 μM), 1.789 ± 0.32 OD; in data set [2] (Dose 100.0 μM) it was 2.763 ± 0.29 OD. Moreover, the EC50 in data set [2] (Homo sapiens, SW480, 48 h) is 7.2 µM; in data set [2] it was 7.19 µM. For the same compound, the fold induction at 100 µM in data set [2] (Homo sapiens) turned out to be 6.1.

As for `CC1=C(CC(=O)O)c2cc(F)ccc2/C1=C\c1ccc([S+](C)[O-])cc1` (centres unmarked) [sulindac], the gastric side effects entry in data set [3] is “causes gastric side effects in many such patients”. Moreover, the “effect on colonic polyps” value in the data set with colonic polyps is given as “Polyps virtually disappear”.

These data come from US6180629A, “[4,5]-Fused-1,3-disubstituted-1,2-diazine-6-one derivatives with nitrogen containing substitutents in position one for the treatment of neoplasia” (Cell Pathways, Inc., priority 1998, dated 2001).
